Laboratory results taken from patent publication EP1054888B1 (priority 1998, dated 1999).
≈ marks a conversion by molar mass, not a printed value.

Legend:
Test in all cases: microbe, parasite or virus in culture
Type in all cases: cell-based
Pyrenophora teres = conditions: read-out: MIC (Minimum Inhibitory Concentration) PYRNTE
Rhizoctonia solani = conditions: read-out: MIC (Minimum Inhibitory Concentration) RHIZSO
[1] = test system: Magnaporthe grisea f. sp. oryzae; conditions: Pyricularia oryzae, read-out: MIC (Minimum Inhibitory Concentration) PYRIOR, Table II; total inhibition of mycelial growth, V8 juice nutrient solution, 6-12 days at 18-25°C, visual inspection
Alternaria solani = conditions: read-out: MIC (Minimum Inhibitory Concentration) ALTESO
Leptosphaeria nodorum = conditions: Parastagonospora nodorum, read-out: MIC (Minimum Inhibitory Concentration) LEPTNO
Botrytis cinerea = conditions: read-out: MIC (Minimum Inhibitory Concentration) BOTRCI
Phytophthora infestans = conditions: read-out: MIC (Minimum Inhibitory Concentration) PHYTIN

| SMILES | MIC (Pyrenophora teres) [µg/mL] | MIC (Rhizoctonia solani) [µg/mL] | MIC [1] [µg/mL] | MIC (Alternaria solani) [µg/mL] | MIC (Leptosphaeria nodorum) [µg/mL] | MIC (Botrytis cinerea) [µg/mL] | MIC (Phytophthora infestans) [µg/mL] |
| --- | --- | --- | --- | --- | --- | --- | --- |
| CCCc1c(-c2c(F)cccc2Cl)c(Cl)nc2ncnn12 [Example 25] | 3.13 (≈ 9.63 µM) | 1.56 (≈ 4.8 µM) | 0.1 (≈ 0.308 µM) | 1.56 (≈ 4.8 µM) | > 100 | 0.78 (≈ 2.4 µM) | 12.5 (≈ 38.4 µM) |
| CC(C)Cc1c(-c2c(F)cccc2Cl)c(Cl)nc2ncnn12 [Example 26] | 3.13 (≈ 9.23 µM) | 0.78 (≈ 2.3 µM) | < 0.05 | 0.78 (≈ 2.3 µM) | 0.39 (≈ 1.15 µM) | 0.2 (≈ 0.59 µM) | > 100 |
| CC(C)c1c(-c2c(F)cccc2Cl)c(Cl)nc2ncnn12 [Example 27] | > 100 | 0.39 (≈ 1.2 µM) | 0.2 (≈ 0.615 µM) | > 100 | 1.56 (≈ 4.8 µM) | 0.78 (≈ 2.4 µM) | > 100 |
| CCC(C)c1c(-c2c(F)cccc2Cl)c(Cl)nc2ncnn12 (stereo not shown) [Example 28] | 6.25 (≈ 18.4 µM) | 0.78 (≈ 2.3 µM) | 1.56 (≈ 4.6 µM) | 6.25 (≈ 18.4 µM) | > 100 | 3.13 (≈ 9.23 µM) | > 100 |
| Fc1cccc(Cl)c1-c1c(Cl)nc2ncnn2c1C1CCCC1 [Example 29] | 0.78 (≈ 2.22 µM) | 0.78 (≈ 2.22 µM) | < 0.05 | 0.78 (≈ 2.22 µM) | 0.39 (≈ 1.11 µM) | 1.56 (≈ 4.44 µM) | > 100 |
| Fc1cccc(Cl)c1-c1c(Cl)nc2ncnn2c1C1CCCCC1 [Example 30] | 0.2 (≈ 0.548 µM) | > 100 | < 0.05 | < 0.05 | 25 (≈ 68.4 µM) | < 0.05 | > 100 |
| Fc1cccc(Cl)c1-c1c(Cl)nc2ncnn2c1CCC(F)(F)F [Example 32] | 12.5 (≈ 33 µM) | 6.25 (≈ 16.5 µM) | 0.2 (≈ 0.528 µM) | 3.13 (≈ 8.26 µM) | > 100 | 0.78 (≈ 2.06 µM) | 50 (≈ 132 µM) |
| Cc1cccc(C)c1-c1c(-c2c(F)cccc2Cl)c(Cl)nc2ncnn12 [Example 33] | > 100 | > 100 | 12.5 (≈ 32.3 µM) | > 100 | > 100 | > 100 | 6.25 (≈ 16.1 µM) |
| Cc1cccc(-c2c(-c3c(F)cccc3Cl)c(Cl)nc3ncnn23)c1 [Example 34] | > 100 | > 100 | 0.78 (≈ 2.09 µM) | 1.56 (≈ 4.18 µM) | 25 (≈ 67 µM) | 6.25 (≈ 16.7 µM) | 50 (≈ 134 µM) |
| Cc1ccccc1-c1c(-c2c(F)cccc2Cl)c(Cl)nc2ncnn12 [Example 35] | > 100 | 3.13 (≈ 8.39 µM) | 0.78 (≈ 2.09 µM) | 3.13 (≈ 8.39 µM) | 6.25 (≈ 16.7 µM) | 3.13 (≈ 8.39 µM) | 25 (≈ 67 µM) |
| O=C1CCCC(=O)C1c1c(-c2c(F)cccc2Cl)c(Cl)nc2ncnn12 [Example 36] | > 100 | > 100 | > 100 | > 100 | > 100 | > 100 | 12.5 (≈ 31.8 µM) |
| COc1nc2ncnn2c(C2CCCCC2)c1-c1c(F)cccc1Cl [Example 38] | > 100 | > 100 | 0.78 (≈ 2.16 µM) | 100 (≈ 277 µM) | > 100 | > 100 | > 100 |
| Fc1cccc(F)c1-c1c(Cl)nc2ncnn2c1C1CCCCC1 [Example 40] | 3.13 (≈ 8.97 µM) | > 100 | 0.39 (≈ 1.12 µM) | 0.1 (≈ 0.287 µM) | > 100 | 0.39 (≈ 1.12 µM) | > 100 |
| Fc1ccc(-c2c(-c3c(F)cccc3Cl)c(Cl)nc3ncnn23)cc1 [Example 41] | 3.13 (≈ 8.3 µM) | 3.13 (≈ 8.3 µM) | 0.1 (≈ 0.265 µM) | 1.56 (≈ 4.14 µM) | > 100 | 3.13 (≈ 8.3 µM) | > 100 |
| Fc1ccccc1-c1c(Cl)nc2ncnn2c1C1CCCCC1 [Example 42] | 3.13 (≈ 9.46 µM) | > 100 | 0.39 (≈ 1.18 µM) | 0.39 (≈ 1.18 µM) | 0.39 (≈ 1.18 µM) | 1.56 (≈ 4.72 µM) | > 100 |
| Clc1ccccc1-c1c(Cl)nc2ncnn2c1C1CCCCC1 [Example 43] | > 100 | > 100 | 0.39 (≈ 1.12 µM) | 1.56 (≈ 4.49 µM) | 1.56 (≈ 4.49 µM) | > 100 | > 100 |
